Test results reported in PubChem BioAssay (NCI).
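How tested: cells in 96-well plates exposed to compound for 48 hours at five concentrations. At the TGI there is no net growth.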

How the values were obtained:
Test in all cases: DTP human tumour cell line panel, 48 h
COLO 205 colon = system: COLO 205 colon
MCF7 breast = system: MCF7 breast
BT-549 breast = system: BT-549 breast
KM12 colon = system: KM12 colon
OVCAR-4 ovarian = system: OVCAR-4 ovarian
MDA-MB-435 = system: MDA-MB-435
UO-31 renal = system: UO-31 renal
RXF 393 renal = system: RXF 393 renal
HCC-2998 colon = system: HCC-2998 colon
SK-MEL-28 melanoma = system: SK-MEL-28 melanoma
SF-539 CNS = system: SF-539 CNS
HCT-15 colon = system: HCT-15 colon
SK-MEL-5 melanoma = system: SK-MEL-5 melanoma
ACHN renal = system: ACHN renal
HT29 colon = system: HT29 colon
NCI-H522 lung = system: NCI-H522 lung
UACC-62 melanoma = system: UACC-62 melanoma
SF-295 CNS = system: SF-295 CNS
UACC-257 melanoma = system: UACC-257 melanoma
CCRF-CEM leukemia = system: CCRF-CEM leukemia
A549 NSCLC = system: A549 NSCLC
TK-10 renal = system: TK-10 renal
PC-3 prostate = system: PC-3 prostate
HS 578T breast = system: HS 578T breast
MDA-N = system: MDA-N
LOX IMVI melanoma = system: LOX IMVI melanoma
SK-OV-3 ovarian = system: SK-OV-3 ovarian
OVCAR-3 ovarian = system: OVCAR-3 ovarian
NCI-H460 lung = system: NCI-H460 lung
NCI-H23 lung = system: NCI-H23 lung
A498 renal = system: A498 renal
MALME-3M melanoma = system: MALME-3M melanoma
MOLT-4 leukemia = system: MOLT-4 leukemia
786-0 renal = system: 786-0 renal
OVCAR-8 ovarian = system: OVCAR-8 ovarian
SNB-19 CNS = system: SNB-19 CNS
NCI/ADR-RES ovarian = system: NCI/ADR-RES ovarian
NCI-H226 lung = system: NCI-H226 lung
EKVX NSCLC = system: EKVX NSCLC
U251 CNS = system: U251 CNS
T-47D breast = system: T-47D breast
IGROV1 ovarian = system: IGROV1 ovarian
HL-60(TB) leukemia = system: HL-60(TB) leukemia
HOP-92 NSCLC = system: HOP-92 NSCLC
DU-145 prostate = system: DU-145 prostate
SK-MEL-2 melanoma = system: SK-MEL-2 melanoma
OVCAR-5 ovarian = system: OVCAR-5 ovarian
SR leukemia = system: SR leukemia
SNB-75 CNS = system: SNB-75 CNS
MDA-MB-231 breast = system: MDA-MB-231 breast
SW-620 colon = system: SW-620 colon
K-562 leukemia = system: K-562 leukemia
HCT-116 colon = system: HCT-116 colon
CAKI-1 renal = system: CAKI-1 renal
M14 melanoma = system: M14 melanoma
RPMI-8226 leukemia = system: RPMI-8226 leukemia
SF-268 CNS = system: SF-268 CNS
HOP-62 NSCLC = system: HOP-62 NSCLC
SN12C renal = system: SN12C renal

CC(=O)Nc1cc2c3c(c1)CCCN3CCC2
TGI (COLO 205 colon): > 100 µM
TGI (MCF7 breast): > 100 µM
TGI (BT-549 breast): > 100 µM
TGI (KM12 colon): > 100 µM
TGI (OVCAR-4 ovarian): > 100 µM
TGI (MDA-MB-435): > 100 µM
TGI (UO-31 renal): > 100 µM
TGI (RXF 393 renal): > 100 µM
TGI (HCC-2998 colon): > 100 µM
TGI (SK-MEL-28 melanoma): > 100 µM
TGI (SF-539 CNS): > 100 µM
TGI (HCT-15 colon): > 100 µM
TGI (SK-MEL-5 melanoma): > 100 µM
TGI (ACHN renal): > 100 µM
TGI (HT29 colon): > 100 µM
TGI (NCI-H522 lung): > 100 µM
TGI (UACC-62 melanoma): > 100 µM
TGI (SF-295 CNS): > 100 µM
TGI (UACC-257 melanoma): > 100 µM
TGI (CCRF-CEM leukemia): > 100 µM
TGI (A549 NSCLC): > 100 µM
TGI (TK-10 renal): > 100 µM
TGI (PC-3 prostate): > 100 µM
TGI (HS 578T breast): > 100 µM
TGI (MDA-N): > 100 µM
TGI (LOX IMVI melanoma): > 100 µM
TGI (SK-OV-3 ovarian): > 100 µM
TGI (OVCAR-3 ovarian): > 100 µM
TGI (NCI-H460 lung): > 100 µM
TGI (NCI-H23 lung): > 100 µM
TGI (A498 renal): > 100 µM
TGI (MALME-3M melanoma): > 100 µM
TGI (MOLT-4 leukemia): > 100 µM
TGI (786-0 renal): > 100 µM
TGI (OVCAR-8 ovarian): > 100 µM
TGI (SNB-19 CNS): > 100 µM
TGI (NCI/ADR-RES ovarian): > 100 µM
TGI (NCI-H226 lung): > 100 µM
TGI (EKVX NSCLC): > 100 µM
TGI (U251 CNS): > 100 µM
TGI (T-47D breast): > 100 µM
TGI (IGROV1 ovarian): > 100 µM
TGI (HL-60(TB) leukemia): > 100 µM
TGI (HOP-92 NSCLC): > 100 µM
TGI (DU-145 prostate): > 100 µM
TGI (SK-MEL-2 melanoma): > 100 µM
TGI (OVCAR-5 ovarian): > 100 µM
TGI (SR leukemia): > 100 µM
TGI (SNB-75 CNS): > 100 µM
TGI (MDA-MB-231 breast): > 100 µM
TGI (SW-620 colon): > 100 µM
TGI (K-562 leukemia): > 100 µM
TGI (HCT-116 colon): > 100 µM
TGI (CAKI-1 renal): > 100 µM
TGI (M14 melanoma): > 100 µM
TGI (RPMI-8226 leukemia): > 100 µM

C=CC(C1=CC(=O)C(OC)=CC1=O)c1ccccc1 (stereo not given)
TGI (COLO 205 colon): 36.6 µM
TGI (MCF7 breast): 26.2 µM
TGI (BT-549 breast): 29.9 µM
TGI (KM12 colon): 34.6 µM
TGI (OVCAR-4 ovarian): 30.1 µM
TGI (MDA-MB-435): 28.3 µM
TGI (UO-31 renal): 29.6 µM
TGI (RXF 393 renal): 29.2 µM
TGI (HCC-2998 colon): 30.7 µM
TGI (SK-MEL-28 melanoma): 29.1 µM
TGI (SF-539 CNS): 29.9 µM
TGI (HCT-15 colon): 32 µM
TGI (SK-MEL-5 melanoma): 30 µM
TGI (ACHN renal): 27.4 µM
TGI (HT29 colon): 42 µM
TGI (NCI-H522 lung): 23.8 µM
TGI (UACC-62 melanoma): 29 µM
TGI (SF-295 CNS): 27.6 µM
TGI (UACC-257 melanoma): 34.8 µM
TGI (CCRF-CEM leukemia): 6.77 µM
TGI (A549 NSCLC): > 62 µM
TGI (TK-10 renal): 32 µM
TGI (SF-268 CNS): 41.3 µM
TGI (PC-3 prostate): 25.7 µM
TGI (HS 578T breast): 69.7 µM
TGI (MDA-N): 31.6 µM
TGI (LOX IMVI melanoma): 31.7 µM
TGI (SK-OV-3 ovarian): 42.2 µM
TGI (OVCAR-3 ovarian): 31.2 µM
TGI (NCI-H460 lung): 36.3 µM
TGI (NCI-H23 lung): 32.5 µM
TGI (A498 renal): > 100 µM
TGI (MALME-3M melanoma): 28.7 µM
TGI (MOLT-4 leukemia): 5.81 µM
TGI (786-0 renal): 28.4 µM
TGI (OVCAR-8 ovarian): 58.7 µM
TGI (SNB-19 CNS): 29.4 µM
TGI (NCI/ADR-RES ovarian): 44.8 µM
TGI (NCI-H226 lung): 39.6 µM
TGI (EKVX NSCLC): 30.5 µM
TGI (U251 CNS): 30 µM
TGI (T-47D breast): 8.9 µM
TGI (IGROV1 ovarian): 30.3 µM
TGI (HL-60(TB) leukemia): 6.72 µM
TGI (HOP-92 NSCLC): 11.8 µM
TGI (HOP-62 NSCLC): 32.4 µM
TGI (DU-145 prostate): 30.2 µM
TGI (SK-MEL-2 melanoma): 30.3 µM
TGI (OVCAR-5 ovarian): 39 µM
TGI (SR leukemia): 26.5 µM
TGI (SNB-75 CNS): 39.1 µM
TGI (SN12C renal): 28 µM
TGI (MDA-MB-231 breast): 19.2 µM
TGI (SW-620 colon): 48.6 µM
TGI (K-562 leukemia): 13.2 µM
TGI (HCT-116 colon): 23.4 µM
TGI (CAKI-1 renal): 31.7 µM
TGI (M14 melanoma): 37.7 µM
TGI (RPMI-8226 leukemia): > 67.6 µM
